{"source": "paper PMC6272646", "about": "“Understanding the Physicochemical Properties of Mitragynine, a Principal Alkaloid of Mitragyna speciosa, for Preclinical Evaluation” (Molecules, 2015)", "key": {"[1]": {"experiment": "pKa determination, microplate spectrophotometer method", "format": "physicochemical", "conditions": "aqueous buffer", "description": "The instruments employed were UV spectrophotometer 8453 UV-Vis Diode Array (Agilent, Santa Clara, CA, USA), and Multiskan* GO Microplate Spectrophotometer (Thermo Scientific, Waltham, MA, USA). Data were captured using the Thermo Scientific SkanIt Software (Thermo Scientific, Version 3.2). Buffer Maker Software (version 1.0.1.55, BPP Marcin Borkowski, Marki, Poland,) was used for preparation of buffers with constant ionic strength for pKa determination. The pH-meter employed throughout the study was a PH 211 Hanna (Padova, Italy) equipped with a combined glass electrode.\npKa determination was carried out using conventional UV and microplate spectrophotometer methods. Acetic acid, tris base and sodium carbonate were used to prepare stable buffers in the pH range of 3 to 12. The buffers were prepared to give a final buffer molarity of 0.01 M. Either NaOH or HCl were used for pH adjustment of the various buffers, whose ionic strength was kept constant at 0.02 by addition of NaCl.\nStock solution of mitragynine at 0.5 mg/mL was prepared in acetonitrile. Ten microliters of the stock solution was transferred into individual test tubes and diluted with 1.0 mL buffer of various pH to give a final concentration of 5 μg/mL. For absorbance spectrum analysis, 250 μL of the various pH buffer solutions spiked with drug were placed in a 96-well quartz UV-transparent microplate and immediately scanned in the range of 200–400 nm at a scanning rate of 200 nm/s in triplicates. The pKa was calculated with equation pKa = pH + log (d − dm/di − d), for basic compound, where di is the absorbance of the ionised species, d is the absorbance of the solution tested and dm is the absorbance of the neutral species."}, "[2]": {"experiment": "Equilibrium solubility in water and buffers (HPLC-UV)", "format": "physicochemical", "description": "The HPLC system consisted of a Jasco delivery pump (Tokyo, Japan) equipped with autosampler connected to a Waters 2487 detector (Milford, MA, USA) coupled to Jasco Chromnav software (Version 2.0, Tokyo, Japan). Chromatographic separation was performed on a C8 Agilent Eclipse plus (4.6 mm i.d. × 250 mm, 5-μm particle size; Apple Valley, MN, USA). The HPLC-UV method was adapted from our previous study and revalidated for the present HPLC system. The method was employed to quantify mitragynine in partition coefficient, stability, dissolution and solubility studies.\nFor solubility studies, an excess of mitragynine was added to 1.0 mL each of distilled water or buffers at pH 4, 7 and 9. The test tubes were placed in a water bath shaker at 37 degrees Celsius at 100 cycles/min for 48 h until equilibrium. The samples were centrifuged at 3000 rpm for 5 min and supernatant was taken for quantification of mitragynine by HPLC-UV. For stability studies, analogous buffers were used, but they were spiked with mitragynine in acetonitrile to give a concentration of 20 µg/mL (organic content was kept below 1%). A 0.1 mL aliquot was collected from each buffer system at intervals of 0, 0.5, 6.0 and 24.0 h for determination of mitragynine. Mitragynine concentrations were expressed as percentage recovered. All experiments were performed in triplicates."}, "[3]": {"experiment": "In vitro release (dissolution) from capsules filled with mitragynine pure standard", "format": "physicochemical", "conditions": "up to 2 h, capsule, basket method, 50 rpm, 37 °C", "description": "Hard shell gelatin capsules filled with mitragynine pure standard were used in the in vitro dissolution study. In order to characterize the release of mitragynine, drug release profile was generated, in which mitragynine release values were determined as a function of time. The US pharmacopoeia I (basket) method was used for the in vitro dissolution study. SGF (pH 1.2) and SIF (pH 6.8) were prepared without enzymes. These media were used for the dissolution study, respectively. The capsule filled with mitragyine was introduced into 500 mL of dissolution medium. The capsule was agitated at 50 rpm at 37 °C. An aliquot (1 mL) of sample was withdrawn at predetermined time intervals of 5, 10, 15, 30, 40, 60, 90 and 120 min after onset of the dissolution. The samples were filtered through 0.45 um PTFE syringe filters, diluted with ACN (1:1) and the drug concentration was determined by the validated RP-HPLC-UV method. Samples were analyzed along with QC samples."}, "rodents": {"tested_on": "rodents", "set-up": "method as in PMID 4626477", "conditions": "cited from earlier work"}, "rats": {"tested_on": "rats", "set-up": "method as in PMID 25262913", "conditions": "cited from earlier work"}, "[4]": {"set-up": "method as in PMID 24841968", "conditions": "cited from earlier work"}, "[5]": {"experiment": "Stability in simulated gastric fluid (SGF, with enzymes)", "conditions": "for Concentration Found in SGF: SGF pH ~1.2 with pepsin, 37 °C"}, "[6]": {"experiment": "Stability in simulated intestinal fluid (SIF, with enzymes)", "conditions": "for Concentration Found in SIF: SIF pH 6.8 with pancreatin"}}, "note": "Where two headings read alike, the source gives them in different places."}
{"compound": "CC[C@@H]1CN2CCc3c([nH]c4cccc(OC)c34)[C@@H]2C[C@@H]1/C(=C\\OC)C(=O)OC", "note": "[mitragynine]", "values": [{"measurement": "pKa", "setting": "[1]; Microplate Spectrophotometer, Day 1, read-out: pKa, interday repeatability", "result": 8.18}, {"measurement": "pKa", "setting": "[1]; Microplate Spectrophotometer, Day 2, read-out: pKa, interday repeatability", "result": 8.1}, {"measurement": "pKa", "setting": "[1]; Microplate Spectrophotometer, Day 3, read-out: pKa, interday repeatability", "result": 8.12}, {"measurement": "pKa", "setting": "[1]; pH 7.55, target pH 7.6, actual pH 7.55, 5 µg/mL, 248 nm, read-out: pKa", "result": 8.09}, {"measurement": "pKa", "setting": "[1]; pH 7.6, microplate method, mean over pH 7.6-9.0, read-out: pKa (Mean ± SD)", "result": "8.08 ± 0.04"}, {"measurement": "pKa", "setting": "[1]; pH 7.76, target pH 7.8, actual pH 7.76, 5 µg/mL, 248 nm, read-out: pKa", "result": 8.11}, {"measurement": "pKa", "setting": "[1]; pH 7.94, target pH 8.0, actual pH 7.94, 5 µg/mL, 248 nm, read-out: pKa", "result": 8.03}, {"measurement": "pKa", "setting": "[1]; pH 8.15, target pH 8.2, actual pH 8.15, 5 µg/mL, 248 nm, read-out: pKa", "result": 8.09}, {"measurement": "pKa", "setting": "[1]; pH 8.32, target pH 8.4, actual pH 8.32, 5 µg/mL, 248 nm, read-out: pKa", "result": 8.1}, {"measurement": "pKa", "setting": "[1]; pH 8.5, target pH 8.6, actual pH 8.50, 5 µg/mL, 248 nm, read-out: pKa", "result": 8.03}, {"measurement": "pKa", "setting": "[1]; pH 8.66, target pH 8.8, actual pH 8.66, 5 µg/mL, 248 nm, read-out: pKa", "result": 8.15}, {"measurement": "pKa", "setting": "[1]; pH 8.8, target pH 9.0, actual pH 8.80, 5 µg/mL, 248 nm, read-out: pKa", "result": 8.06}, {"measurement": "solubility at 48 h", "setting": "[2]; aqueous buffer, thermodynamic from solid, buffer pH 4, 37 °C", "result": "3500 ± 10", "unit": "µg/mL"}, {"measurement": "solubility at 48 h", "setting": "[2]; aqueous buffer, thermodynamic from solid, buffer pH 7, 37 °C", "result": "88.9 ± 1.6", "unit": "µg/mL"}, {"measurement": "solubility at 48 h", "setting": "[2]; aqueous buffer, thermodynamic from solid, buffer pH 9, 37 °C", "result": "18.7 ± 0.4", "unit": "µg/mL"}, {"measurement": "solubility at 48 h", "setting": "[2]; distilled water, thermodynamic from solid, water, 37 °C", "result": "64.6 ± 1.2", "unit": "µg/mL"}, {"measurement": "solubility at 48 h", "setting": "[2]; distilled water, water, 37 °C", "result": "< 100", "unit": "µg/mL"}, {"measurement": "drug released (dissolution)", "setting": "[3]; SGF pH 1.2 without enzymes", "result": 80, "unit": "%"}, {"measurement": "drug released (dissolution)", "setting": "[3]; SIF pH 6.8 without enzymes", "result": 22, "unit": "%"}, {"measurement": "dose levels with no toxicity", "setting": "rodents", "result": "800 to 900", "unit": "mg/kg"}, {"measurement": "addictive potential effects", "setting": "rats; i.p. in Tween 80, high (30 mg/kg) and moderate (10 mg/kg) doses", "result": "observed"}, {"measurement": "addictive potential effects", "setting": "rats; i.p. in Tween 80, mild (5 mg/kg) and low (1 mg/kg) doses", "result": "absent"}, {"measurement": "drug loss in SGF", "setting": "[4]", "result": 26, "unit": "%"}, {"measurement": "Concentration Found in SGF", "setting": "[5]; 0 min", "result": "18720 ± 50", "unit": "ng/mL"}, {"measurement": "RD (relative difference vs time 0) in SGF", "setting": "[5]; 10 min", "result": "−0.21", "unit": "%"}, {"measurement": "Concentration Found in SGF", "setting": "[5]; 10 min", "result": "18680 ± 230", "unit": "ng/mL"}, {"measurement": "RD (relative difference vs time 0) in SGF", "setting": "[5]; 20 min", "result": "−20.00", "unit": "%"}, {"measurement": "Concentration Found in SGF", "setting": "[5]; 20 min", "result": "14980 ± 880", "unit": "ng/mL"}, {"measurement": "RD (relative difference vs time 0) in SGF", "setting": "[5]; 30 min", "result": "−22.5", "unit": "%"}, {"measurement": "Concentration Found in SGF", "setting": "[5]; 30 min", "result": "14540 ± 580", "unit": "ng/mL"}, {"measurement": "Concentration Found in SGF", "setting": "[5]; 40 min", "result": "14190 ± 370", "unit": "ng/mL"}, {"measurement": "RD (relative difference vs time 0) in SGF", "setting": "[5]; 50 min", "result": "−24.19", "unit": "%"}, {"measurement": "Concentration Found in SGF", "setting": "[5]; 50 min", "result": "14110 ± 220", "unit": "ng/mL"}, {"measurement": "RD (relative difference vs time 0) in SGF", "setting": "[5]; 60 min", "result": "−25.53", "unit": "%"}, {"measurement": "Concentration Found in SGF", "setting": "[5]; 60 min", "result": "13940 ± 200", "unit": "ng/mL"}, {"measurement": "stability in SGF (in words)", "setting": "[5]; SGF pH ≈ 1.2, 37 °C", "result": "not stable"}, {"measurement": "relative deviation / drug loss in SGF", "setting": "[5]; from the 20 min time point onwards", "result": "greater than 20%"}, {"measurement": "Concentration Found in SIF", "setting": "[6]; 0 min, 37 °C", "result": "6700 ± 600", "unit": "ng/mL"}, {"measurement": "RD (relative difference vs time 0) in SIF", "setting": "[6]; 10 min", "result": "−0.07", "unit": "%"}, {"measurement": "Concentration Found in SIF", "setting": "[6]; 10 min, 37 °C", "result": "6690 ± 630", "unit": "ng/mL"}, {"measurement": "Concentration Found in SIF", "setting": "[6]; 20 min, 37 °C", "result": "6560 ± 670", "unit": "ng/mL"}, {"measurement": "RD (relative difference vs time 0) in SIF", "setting": "[6]; 30 min", "result": 4.43, "unit": "%"}, {"measurement": "Concentration Found in SIF", "setting": "[6]; 30 min, 37 °C", "result": "6990 ± 210", "unit": "ng/mL"}, {"measurement": "RD (relative difference vs time 0) in SIF", "setting": "[6]; 40 min", "result": 4.94, "unit": "%"}, {"measurement": "Concentration Found in SIF", "setting": "[6]; 40 min, 37 °C", "result": "7030 ± 130", "unit": "ng/mL"}, {"measurement": "RD (relative difference vs time 0) in SIF", "setting": "[6]; 50 min", "result": 3.49, "unit": "%"}, {"measurement": "Concentration Found in SIF", "setting": "[6]; 50 min, 37 °C", "result": "6930 ± 130", "unit": "ng/mL"}, {"measurement": "RD (relative difference vs time 0) in SIF", "setting": "[6]; 60 min", "result": 2.49, "unit": "%"}, {"measurement": "Concentration Found in SIF", "setting": "[6]; 60 min, 37 °C", "result": "6860 ± 10", "unit": "ng/mL"}, {"measurement": "RD (relative difference vs time 0) in SIF", "setting": "[6]; 120 min", "result": 1.31, "unit": "%"}, {"measurement": "Concentration Found in SIF", "setting": "[6]; 120 min, 37 °C", "result": "6780 ± 790", "unit": "ng/mL"}, {"measurement": "RD (relative difference vs time 0) in SIF", "setting": "[6]; 180 min", "result": 3.46, "unit": "%"}, {"measurement": "Concentration Found in SIF", "setting": "[6]; 180 min, 37 °C", "result": "6930 ± 770", "unit": "ng/mL"}, {"measurement": "stability in SIF (in words)", "setting": "[6]; SIF pH 6.8, 3 h, 37 °C", "result": "considered stable"}]}
